Test results from US7888330B2, “Phosphoramidate derivatives of FAU” (Wayne State University, priority 2005, dated 2011).
pIC50: −log10 of the molar value. Several values for one entry are separate records, joined by “and”; a condition that tells them apart may be missing. Equal values may be shown once. Entries after “also recorded” stand apart in the source; their conditions may differ.

How the values were obtained:
pig liver esterase = assay: Pig liver esterase hydrolysis studies; format: in vitro ADME; settings: 1 mg/mL in 0.02 M Na2HPO4, 200 units esterase per mL, 37° C., followed by TLC
Description: Thymidine and phosphoramidate analogs were dissolved in 0.02 M Na2HPO4 at a concentration of 1 mg/mL and 200 units of pig liver esterase per mL solutions (Sigma, St. Louis, Mo.) were added. The mixtures were stirred and maintained at 37° C. through out the course of the experiment. The rate of hydrolysis was followed by thin layer chromatography (TLC) from reaction mixture samples collected at selected intervals. For TLC monitoring, CH2Cl2:MeOH (4:1) and i-PrOH:NH4OH:H2O (7:1:2) mobile phases were used. At the completion of hydrolysis, within 30 minutes, samples were run on a HPLC system.

Renca cells [1] = assay: Tracer uptake studies in Renca cells; format: cell-based, mouse; settings: 2 hours, 1 μCi/mL [H-3] tracer
Description: (§1) Renca, a mouse renal carcinoma cell line used for these studies, was a gift from Dr. G. Gali Hillman, Wayne State University. Cells were cultured in RPMI-1640 medium containing L-glutamine (Gibco) supplemented with 10% (v/v) fetal bovine serum (FBS), 100 U/mL penicillin, and 0.1 mg/mL streptomycin. Cells were cultured at 37° C. in a humidified incubator with a gas phase of 95% air and 5% CO2.
Tracer uptake studies were performed using [H-3]FAU (318.2 GBq/mmol, >99% radiochemical purity), and [H-3]FAU-PA (9.25 GBq/mmol, >99% radiochemical purity). Radiochemicals were obtained from Moravek Biochemicals (Brea, Calif.).
Renca cells were seeded at 2×10^5 cells/mL in 6 well plates. After 48 hours, when cells were 50-60% confluent, culture medium was replaced with 1 mL medium containing either 1 μCi/mL of [H-3]FAU or [H-3]FAU-PA. Cells were incubated in a humidified incubator for two hours at 37° C. in an atmosphere of 5% CO2 and 95% air. At the end of the incubation period, radioactive medium was removed, and cells were rinsed three times with ice cold phosphate buffered saline (PBS). Then, cells were trypsinized, centrifuged at 2000 g for 5 minutes and rewashed three times with ice cold PBS. […] All the supernatants and pellet samples were mixed with 5 mL of Ultima Gold scintillation cocktail and counted for 5 minutes in a liquid scintillation counter. […]

Renca cells [2] = assay: DNA incorporation studies (PCA acid extraction) in Renca cells; format: cell-based, mouse; settings: 2 hours
Description: as §1
Two days after seeding 1×10^6 cells in 100×20 mm culture dishes, culture medium was replaced with 1 mL medium containing either 1 μCi/mL of [H-3] FAU or [H-3] FAU-PA. Cells were incubated in a humidified incubator for two hours at 37° C. in an atmosphere of 5% CO2 and 95% air. At the end of the incubation period, radioactive medium was removed and cells were washed three times with ice cold PBS. Then, cells were trypsinized, centrifuged and rewashed three times with ice cold PBS. Cells were lysed with 1 mL of 1M ice-cold perchloric acid solution. The cell lysates were vortexed and centrifuged at 14000 g for 15 minutes. The supernatants were removed, and the pellets were rinsed twice with 1 mL PCA. The acid insoluble fractions were resuspended in 200 μl of Soluene-350. All the acid soluble fractions or supernatants and the acid insoluble fractions were mixed with 5 mL of Ultima Gold scintillation cocktail and counted for 5 minutes on a liquid scintillation counter after an overnight chilling. […]

MOLT-4 cells = assay: Growth inhibition, MOLT-4 cells; format: cell-based, human
Description: (§2) The cell lines CEM (T lymphoblastoid cells derived from a human peripheral blood), MOLT-4 (derived from a human acute lymphoblasticleukemia), RAJI (derived from a human Burkitt lymphoma), U-937 (derived from a human histocytic lymphoma), and K-562 (derived from a human chronic myelogenous leukemia) were used to measure the cytotoxicity, as assessed by growth inhibition potential. The cell lines were purchased from the American Type Culture Collection (Vienna, Va.). The cells were grown and maintained as a suspension culture in a RPMI 1640 preparation containing L-glutamine (Biofluids, Rockville, Md.) and 10% (v/v) heat-inactivated fetal calf serum (Invitrogen, Chicago, Ill.); a penicillin-streptomycin solution (Sigma Chemical Co., St. Louis, Mo.) was added to achieve a final concentration of 100 units/mL, and 100 μg/mL respectively. Cells were maintained at 37° C. in a humidified 5% CO2 atmosphere and were passed every 72-96 h to maintain cell densities of approximately 30,000 to 40,000 cells/mL. Under these conditions, the doubling times for CEM cells, MOLT-4 cells, RAJI cells, U-937 cells, and K-562 cells were 21-22 hours.
(§3) FAU and FAUPA were dissolved in deionized water and sterilized by passing through a Millex-GV, 0.22 μm filter, Millipore, Bedford, Mass.
(§4) All cell lines were resuspended in fresh media at 3000 to 3500 cells/mL. […]

CEM cells = assay: Growth inhibition, CEM cells; format: cell-based, human; settings: 72 hours, cell counting
Description: as §2, §3, §4

U-937 cells = assay: Growth inhibition, U-937 cells; format: cell-based, human; settings: 72 hours
Description: as §2, §3, §4

RAJI cells = assay: Growth inhibition, RAJI cells; format: cell-based, human; settings: 72 hours; for growth inhibition (in words): 3-1000 μM
Description: as §2, §3
(§5) All cell lines were resuspended in fresh media at 3000 to 3500 cells/mL. To each cell suspension final volume 0.2 mL, was added to achieve 0 to 1000 μM concentration of either FAU or FAU-PA. Control experiments had appropriate amounts of sterile distilled water instead of the drug.

K-562 cells = assay: Growth inhibition, K-562 cells; format: cell-based, human; settings: 72 hours; for growth inhibition (in words): 3-1000 μM
Description: as §2, §3, §5

[3] = target: T1, mammalian cytosolic thymidine kinase (TK1) (Homo sapiens, UniProt P04183); settings: relative to thymidine or FMAU (Sun et al., 2003); cited from earlier work
T1 sequence (P04183 1-234): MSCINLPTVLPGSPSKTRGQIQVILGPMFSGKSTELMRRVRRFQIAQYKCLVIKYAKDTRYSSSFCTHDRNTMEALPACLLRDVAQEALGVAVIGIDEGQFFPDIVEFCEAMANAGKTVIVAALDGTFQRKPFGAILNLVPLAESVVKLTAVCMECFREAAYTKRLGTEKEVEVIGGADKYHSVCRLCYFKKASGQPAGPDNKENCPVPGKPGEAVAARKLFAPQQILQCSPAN

Structure (SMILES) | time for hydrolysis by pig liver esterase (pig liver esterase) [min] | intracellular accumulation of activity, FAU-PA relative to FAU (Renca cells [1]) | intracellular accumulation of activity, FAU-PA relative to FAU (Renca cells [1]; listed as [H-3]FAU-PA) [fold] | share of total accumulated activity found in the acid insoluble fraction (Renca cells [2]) [%] | pIC50 (MOLT-4 cells; Homo sapiens, MOLT-4, 72 hours, cell counting) | pIC50 (CEM cells; Homo sapiens, CCRF-CEM) | pIC50 (U-937 cells; Homo sapiens, cell counting) | growth inhibition (in words) (RAJI cells) | pIC50 (RAJI cells; Homo sapiens, cell counting) | pIC50 (K-562 cells; Homo sapiens, K562, K-562 cells (printed K-567), cell counting) | growth inhibition (in words) (K-562 cells; K-562 cells) | growth inhibition at 1 mM (in words) (MOLT-4 cells; 1 mM, 72 hours, compared with CEM) | pIC50 (CEM cells) | growth inhibition at 1 mM (in words) (U-937 cells; 1 mM, compared with CEM) | growth inhibition at 1 mM (in words) (RAJI cells; 1 mM, compared with CEM) | growth inhibition at 1 mM (K-562 cells; K-562 cells, 1 mM) [%] | substrate quality for thymidine kinase (in words) [3]
COC(=O)C(C)NP(=O)(OCC1OC(n2cc(C)c(=O)[nH]c2=O)C[C@H]1O)Oc1ccccc1 (stereo partly drawn) [thymidine-PA, Methyl thymidine-5′-phenylphosphoryl-P→N-alaninate, reference compound] | 15 to 30 |  |  |  |  |  |  |  |  |  |  |  |  |  |  |  | 
COC(=O)C(C)NP(=O)(OCC1OC(n2ccc(=O)[nH]c2=O)C(F)C1O)Oc1ccccc1 [FAU-PA, 1-(2′-deoxy-2′-fluoro-β-D-arabinofuranosyl)-uracil-5′-(phenylmethoxyalaninyl phosphate] | ≤ 15 | > 17 fold and 17 fold | 17 | 72 | > 4.22 | > 4.22 | > 4.22 | little growth inhibition | < 4.00 | < 4.00 | little growth inhibition |  |  |  |  |  | 
O=c1ccn([C@@H]2O[C@H](CO)[C@@H](O)[C@@H]2F)c(=O)[nH]1 [FAU, 1-(2′-deoxy-2′-fluoro-β-D-arabinofuranosyl)-uracil, reference compound] |  |  |  | 80 |  |  |  | little growth inhibition |  |  | little growth inhibition | somewhat less inhibited | > 4.00 | somewhat less inhibited | somewhat less inhibited | 40 | poor substrate; also recorded: very poor substrate
